{"source": "patent US10807957B2", "about": "“Tetradentate chelating monoquinoline derivative, manufacturing method thereof, and application of same as metal ion regulator for neurodegenerative disease” (GUANGDONG UNIVERSITY OF TECHNOLOGY, priority 2016, dated 2020)", "test": "Affinity constants for Cu2+ by competitive chelation with UV/Vis monitoring", "format": "binding", "settings": "Cu2+ versus Zn2+, pH 7.4", "protocol": "Estimation of affinity constants of compounds of general formula (I) with metal ions: […]\nAffinity Constants for Cu^2:\nThe following mother solutions were prepared: (A) ligand L=TDMQ-n, 300 μM in 20 mM Tris.HCl pH 7.4, 150 mM NaCl; (B) Competing ligands (namely NTA, EDTA, EDDA, EGTA, or CDTA), 300 μM in 20 mM Tris.HCl pH 7.4, 150 mM NaCl; (C) CuCl2, 15 mM in H2O. In the UV/Vis cuvette, 100 μL of (A), 100 μL of (B), 1800 μL of 20 mM Tris.HCl pH 7.4, 150 mM NaCl, and 2 μL of (C) were added in that order. The final concentrations of L, Competing ligand (LC), and Cu^2+ were 15 μM.\nThe spectrum of the ligand L (2 μL of H2O instead of 2 μL of (C)) was recorded according to above conditions; and the spectrum of [Cu^2+−L] (100 μL of 20 mM Tris.HCl pH 7.4, 150 mM NaCl, instead of 100 μL of (B)) was recorded according to above conditions. All ligands and complexes studied followed the Beer-Lambert law in the experimental conditions used.\nThe equations of complexation are as follows: […]\nIt can be deduced that at the equilibrium:\nUV/Vis monitoring at 383 nm allowed to determine the absorbance of the competitive chelation mixture (Amix), the absorbance of L in the absence of Cu^2+ (AL), and the absorbance of CuL in the absence of competing ligand (ACu-L). The proportion of Cu^2+ chelated by L was calculated as x=(AL-Amix)/(AL-ACu-L). Experiments were performed in triplicate."}
{"smiles": "CN(C)CCCNCc1ccc2c(Cl)cc(Cl)c(N)c2n1", "note": "[TDMQ-19, N^1-((8-amino-5,7-dichloroquinolin-2-yl)methyl)-N^3,N3-dimehypropane-1,3-diamine]", "values": [{"measurement": "difference between binding constants for copper and zinc", "value": "10 orders of magnitude"}]}
{"smiles": "CN(C)CCNCCc1ccc2c(Cl)cc(Cl)c(N)c2n1", "note": "[TDMQ-20, N^1-(2-(8-amino-5,7-dichloroquinolin-2-yl)ethyl)-N^2,N^2-dimethylethane-1,2-diamine]", "values": [{"measurement": "difference between binding constants for copper and zinc", "value": "12 orders of magnitude"}]}
